In publication PMC6826694, “Validation of Hepatocellular Carcinoma Experimental Models for TGF-β Promoting Tumor Progression” (Cancers, 2019):

Tests used:
[1] = tested on: SK-HEP1-Luc cells; parameters: method as in PMID 26549110; settings: oral administration, female BALB/C nu/nu, orthotopic SK-HEP1-Luc; ref [45]; cited from earlier work
[2] = Plasma pharmacokinetics of Galunisertib after single oral dose (HPLC-FL); format: in vivo, mouse; settings: for AUC(0-t) / Cmax / Tmax / half-life / k el: mouse, single oral dose, female CD-1 mice, plasma
Procedure: (§1) Firstly, we quantified the concentration of LY2157299 in plasma of female CD-1 mice by a liquid chromatographic method, in order to define the concentration for the therapeutic window. Therefore, the drug was administered orally and given in two formulations. Group 1 (15 mice) received Galunisertib as suspension (75 mg/kg) prepared by mixing Galunisertib with 1% Carboxymethylcellulose, 0.5% Sodium Lauryl Sulfate, 0.085% Povidone, followed by sonication in a water bath sonicator or with a probe sonicator until a fine suspension with a final concentration of 7.5 mg/mL was achieved. Group 2 (15 mice) received Galunisertib as solution (150 mg/kg solution) prepared by dissolving the drug in 10% of dimethylsulfoxide (DMSO), and then adding sequentially polyethylene glycol (PEG)400 (30%), ethanol (EtOH) (10%), saline (30%) and HCl 0.01 M (20%) at a final pH of ~6 under mixing to a final concentration of 15 mg/mL.
The volume of administration was 10mL/kg for single treatment. Physical appearance, behavior as well as general and local clinical signs of the mice were monitored throughout the experiment. […] At predefined time points (0.5, 1, 2, 4, 8 h after administration), the animals were deeply anesthetized by isoflurane followed by a complete retro-orbital bleeding. The blood was collected in heparinized tubes and centrifuged at 6000× g for 5–10 minutes within 15 minutes after collection. The plasma was transferred to tubes and stored at −20 °C until analysis.
To quantify the concentration of Galunisertib, plasma was measured by a HPLC/Fluorimetric (HPLC-FL) method.
The pharmacokinetic parameters (Kelim, T1/2, and Tmax.) represented as mean ± SD of three animals/time for both Galunisertib formulations were determined using the MKModel by Nick Holford software Version 4, (Biosoft, Ferguson, MO, USA) or equivalent pharmacokinetic programs (Table 4).

[3] = Appearance / solubility of Galunisertib in the dosing formulations; format: physicochemical
Procedure: as §1

[4] = tested on: HepG2-Luc cells; test: Orthotopic HCC model, intrahepatic HepG2-Luc cells in NOG mice, tumor growth by IVIS bioluminescence; format: in vivo, mouse; settings: for Bioluminescence (average radiance, IVIS) vs vehicle (GP1): NOG mice, HepG2-Luc
Procedure: To evaluate in vivo the effect of Galunisertib (LY2157299) on tumor growth rate we used an orthotopic model: HCC was induced by intrahepatic injections of 1 × 10^6 HepG2-Luc cells in 7–8 weeks old, female NOG mice. The inoculated animals presented a clear engraftment of the liver cancer. The tumor growth was monitored weekly with IVIS Spectrum (PerkinElmer) through intraperitoneal administration of D-Luciferin (Sigma, 150 mg/10 mL/kg) until the end of the experiment.
Two weeks after the injection of HepG2-Luc cells, 45 mice were selected based on the bioluminescence signal and randomized into three groups of 15 animals. The first group (control group) was treated with 10 mL/kg of a […] vehicle solution (10% DMSO, 30% PEG400, 10% EtOH, 30% saline solution, 20% HCl 0.01 M, final pH 6.0). The second group (GP2) received 10 mL/kg Galunisertib solution via gastric probe (OS) and in the third group of mice (GP3) the drug was administered intravenously (IV) with 5 mL/kg Galunisertib encapsulated in polymeric nanocapsules. This nanoencapsulation was used to optimize the formulation in order to maximize therapeutic efficiency and minimize systemic toxicity. The nanocapsules were prepared from biocompatible and biodegradable polymers as described previously.
After sacrificing the animals, a complete necropsy was performed and documented by photos. Before sacrificing the animals, they were imaged by IVIS Spectrum to identify bioluminescent tissues for explantation.
Figure 4 Treatment of NOD/Shi-Scid/IL-2Rγ^null […] (NOG) mice with luciferin-labeled hepatocellular carcinoma (HCC) with vehicle or two Galunisertib preparations. (A). Bioluminescence images of NOG mice prior injected intrahepatically with HepG2-Luc cells at Day 23 and 44 after vehicle injection (GP1), or Galunisertib administration via gavage (GP2) or intravenous route (GP3). (B) Average Radiance (IVIS) versus time after tumor inoculation. Data were averaged over the animals which reached the end of experiment (GP1: n = 15; GP2: n = 14; GP3: n = 10).

[5] = tested on: TGF-β1, TGF-β RI and TGF-β RII mRNA; test: qRT-PCR mRNA expression in tumor tissues of the orthotopic model; format: in vivo, mouse; settings: for mRNA expression of TGF-βI, TGF-β RI and TGF-β RII levels vs controls: tumor tissues, qRT-PCR
Source text: No difference was found comparing the two Galunisertib formulations.

[6] = tested on: HepG2 cells; parameters: method as in PMID 23826206; settings: exogenous TGF-β1 in vitro, ref [22]; cited from earlier work
[7] = tested on: CD44 and THY1; parameters: method as in PMID 29515105, PMID 26057634; settings: HLE and HLF cells in vitro; ref [24, 25]; cited from earlier work
[8] = tested on: invasive HCC cells (HLE and HLF); parameters: method as in PMID 29515105, PMID 26057634; settings: in vitro and in ex vivo human HCC samples; ref [24, 25]; cited from earlier work
[9] = tested on: SKIL and PMEPA1 mRNA; settings: HCC tumor tissues; ref [26]; cited from earlier work
[10] = tested on: pancreatic ductal adenocarcinoma; parameters: method as in PMID 30866547; settings: ref [17]; cited from earlier work
[11] = tested on: TGF-β1 SMAD2/3 pathway; parameters: method as in PMID 29957876; settings: CC14-induced mice; ref [20]; cited from earlier work
[12] = tested on: CD133 and Vimentin; parameters: method as in PMID 29805610; settings: ref [23]; cited from earlier work
[13] = tested on: TGF-β linked EMT transition; settings: female BALB/C nude mice, subcutaneous Hg2 cells; ref [44]; cited from earlier work

Cc1cccc(-c2[nH]c(CNc3ccccc3F)nc2-c2ccc3ncnn3c2)n1 [EW-7197]
Effect on tumor growth [1]: ALK 5 inhibitor interferes with tumor growth

Cc1cccc(-c2nn3c(c2-c2ccnc4ccc(C(N)=O)cc24)CCC3)n1 [Galunisertib]
Cmax and AUClast higher than the 75 mg/kg suspension ([2]; 150 mg/kg solution vs 75 mg/kg suspension, considering the dose correcting factor): 2.5 fold | AUC(0-t) ([2]; Solution (150 mg/kg)): 15500 ng·h/mL | Cmax ([2]; Solution (150 mg/kg)): 19000 ng/mL | Tmax ([2]; Solution (150 mg/kg)): 30 min | half-life ([2]; Solution (150 mg/kg)): 103 min | k el ([2]; Solution (150 mg/kg)): 0.000164 s⁻¹ | AUC(0-t) ([2]; Suspension (75mg/kg)): 3110 ng·h/mL | Cmax ([2]; Suspension (75mg/kg)): 3330 ng/mL | Tmax ([2]; Suspension (75mg/kg)): 30 min | half-life ([2]; Suspension (75mg/kg)): 84 min | k el ([2]; Suspension (75mg/kg)): 0.000136 s⁻¹ | Appearance / solubility in formulation ([3]; new formulation, 150 mg/kg solution: 10% DMSO, 30% PEG400, 10% EtOH, 30% saline, 20% HCl 0.01 M, pH ~6, 15 mg/mL): completely clear solution | Appearance / solubility in formulation ([3]; old formulation (75 mg/kg): 1% Carboxymethylcellulose, 0.5% Sodium Lauryl Sulfate, 0.085% Povidone, 7.5 mg/mL): only moderately soluble | Bioluminescence (average radiance, IVIS) vs vehicle (GP1) ([4]; GP2 (LY × OS): 10 mL/kg Galunisertib solution via gastric probe): no significant difference in bioluminescence | Bioluminescence (average radiance, IVIS) vs vehicle (GP1) ([4]; GP3 (LY × IV): 5 mL/kg Galunisertib encapsulated in polymeric nanocapsules, intravenous): no significant difference in bioluminescence | Effect on tumor regression or prevention of metastasis ([4]; treated groups (GP2 gavage, GP3 intravenous) vs control, treatment period Day 16–Day 44): no effect on tumor regression or prevention of metastasis | mRNA level of the drug target compared to controls treated with vehicle ([5]; orthotopic HepG2-Luc model, NOG mice): statistically significant reduction (p = 0.03) | mRNA expression of TGF-βI, TGF-β RI and TGF-β RII levels vs controls ([5]; mice treated with Galunisertib solution): significant (p < 0.05) down-regulation | mRNA expression of TGF-βI, TGF-β RI and TGF-β RII levels vs controls ([5]; mice treated with encapsulated Galunisertib): significant (p < 0.05) down-regulation | Effect on TGF-β1-induced changes (flat, larger cells; reduced E-cadherin in cell–cell contact) [6]: reversed | Expression of CD44 and THY1 [7]: reducing the expression | Colony formation, liver spheroids and invasive growth capacity [8]: decrease | SKIL and PMEPA1 mRNA expression [9]: strongly down-regulated | Effect on mast cell-mediated resistance to GEM/NAB (reduced apoptosis, TGF-β signaling, invasion) [10]: restored

NC(=O)c1ccc(-c2nc(-c3ccc4c(c3)OCO4)c(-c3ccccn3)[nH]2)cc1 [SB431542]
Effect on liver fibrosis and TGF-β1 SMAD2/3 [11]: significantly attenuated | Expression of CD133 and Vimentin [12]: upregulated

C[S+]([O-])CCCCN=C=S (stereo not shown) [Sulforaphane]
Effect on TGF-β linked EMT transition [13]: Sulforaphane inhibits TGF-β linked EMT transition
